Here are results for 22 compounds from patent publication US20260297070A1, “CYCLIC [COMPOUND LEFT OUT] WRN INHIBITORS” (Nimbus Wadjet, Inc., priority 2023, published 2026).

SMILES strings stand for the structures. Like-named read-outs stand apart in the source and are kept apart here.

This assay has as its target T1, human Werner helicase (WRN-BV08, Uniprot Q14191, amino acids 517-1235 with L1074F point mutation) (Homo sapiens, UniProt Q14191, L1074F).
T1 construct: Uniprot Q14191, amino acids 517-1235 with L1074F point mutation; TEV-cleavable 8×His (C, cleaved yes); made in house; host or cells: Sf9 insect cells (baculovirus)
The experiment in a line: WRN (BV08) ADP-Glo Assay. It is filed as biochemical. The conditions noted are these: 5 μM ATP, 0.1 nM DNA duplex, 15 min preincubation, 60 min at 25° C., pH 7.5, 1% DMSO. The procedure, abridged:
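0.15 nM WRN (aa 517-1235, L1074F, Sf9-expressed, tag cleaved) preincubated 15 min at 25 °C with compound, then 5 μM ATP and 0.1 nM DNA duplex added for 60 min. Buffer: 20 mM Bicine pH 7.5, 1 mM MgCl2, 10 mM KCl, 1 mM TCEP; 1% DMSO. ADP-Glo luminescence; IC50 by 4-parameter fit.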
On the technique in general: ADP-Glo first removes unused ATP, then detects ADP through luciferase.

The mark [1] stands for this setting: 0.15 nM WRN, read-out: ADP-Glo_hWRN_IC50.

T1 sequence (Q14191 with tags, fused parts or gaps L1074F limits assumed): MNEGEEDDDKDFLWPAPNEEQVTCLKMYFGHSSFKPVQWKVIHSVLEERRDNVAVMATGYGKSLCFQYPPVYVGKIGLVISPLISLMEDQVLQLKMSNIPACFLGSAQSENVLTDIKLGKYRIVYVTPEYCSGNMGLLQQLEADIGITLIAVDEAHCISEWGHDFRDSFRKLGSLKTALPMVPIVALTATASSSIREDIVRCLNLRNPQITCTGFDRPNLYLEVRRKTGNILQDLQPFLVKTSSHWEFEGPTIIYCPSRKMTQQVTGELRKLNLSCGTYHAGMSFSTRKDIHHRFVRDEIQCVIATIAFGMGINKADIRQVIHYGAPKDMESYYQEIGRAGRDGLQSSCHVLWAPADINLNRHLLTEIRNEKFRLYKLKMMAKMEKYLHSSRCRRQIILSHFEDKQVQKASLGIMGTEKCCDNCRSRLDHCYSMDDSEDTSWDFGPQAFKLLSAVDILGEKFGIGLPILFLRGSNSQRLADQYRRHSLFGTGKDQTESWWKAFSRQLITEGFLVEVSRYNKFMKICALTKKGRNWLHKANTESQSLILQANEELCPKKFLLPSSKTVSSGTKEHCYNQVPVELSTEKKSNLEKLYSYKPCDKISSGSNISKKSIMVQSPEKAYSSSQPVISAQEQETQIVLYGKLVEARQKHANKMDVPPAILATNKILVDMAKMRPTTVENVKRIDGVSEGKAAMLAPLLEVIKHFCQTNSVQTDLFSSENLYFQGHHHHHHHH

Regarding `CC(C)(O)c1cc(CN(C(=O)Cn2cc(-c3cccc(F)c3)cn2)C2C=CS(=O)(=O)C2)ccn1` (stereo not shown) [I-59, N-(1,1-dioxo-2,3-dihydro-1lambda6-thiophen-3-yl)-2-[4-(3-fluorophenyl)-1H-pyrazol-1-yl]-N-{[2-(2-hydroxypropan-2-yl)pyridin-4-yl]methyl}acetamide], the IC50 under setting [1] is less than 0.5 µM.

Turning to `CNC(=O)CC(C(=O)N(Cc1ccncc1)C1C=CS(=O)(=O)C1)c1ccc(-c2ccc(F)cc2)cc1` (stereo not shown) [I-562, N-(1,1-dioxo-2,3-dihydro-1lambda6-thiophen-3-yl)-2-{4′-fluoro-[1,1′-biphenyl]-4-yl}-N′-methyl-N-[(pyridin-4-yl)methyl]butanediamide], under setting [1], the IC50 was more than 50 µM.

Regarding `CC(C)(O)c1cc(CN(C(=O)Cn2ncc(-c3ccc(F)c(F)c3)cc2=O)C2C=CS(=O)(=O)C2)ccn1` (single isomer, unassigned) [I-767], the IC50 under setting [1] is less than 0.5 µM.

`N#Cc1cccn1-c1ccc(CC(=O)N(Cc2ccncc2)C2C=CS(=O)(=O)C2)cc1` (stereo not shown) [I-272, 2-[4-(2-cyano-1H-pyrrol-1-yl)phenyl]-N-(1,1-dioxo-2,3-dihydro-1lambda6-thiophen-3-yl)-N-[(pyridin-4-yl)methyl]acetamide]: the IC50 under setting [1] lay within 5 to 10 µM.

As for `COCc1cc(-c2ccc(F)cc2)ccc1CC(=O)N(Cc1ccncc1)C1C=CS(=O)(=O)C1` (stereo not shown) [I-376, N-(1,1-dioxo-2,3-dihydro-1lambda6-thiophen-3-yl)-2-[4′-fluoro-3-(methoxymethyl)-[1,1′-biphenyl]-4-yl]-N-[(pyridin-4-yl)methyl]acetamide], the IC50 under setting [1] was more than 50 µM.

Regarding `O=C(Cn1nc(C(F)F)c2c1CCCC2)N(Cc1ccncc1)C1C=CS(=O)(=O)C1` (stereo not shown) [I-616, 2-[3-(difluoromethyl)-4,5,6,7-tetrahydro-1H-indazol-1-yl]-N-(1,1-dioxo-2,3-dihydro-1lambda6-thiophen-3-yl)-N-[(pyridin-4-yl)methyl]acetamide], the IC50 under setting [1] was more than 50 µM.

In the case of `O=C(Cc1ccc(N2CCC2)cc1)N(Cc1ccncc1)C1C=CS(=O)(=O)C1` (stereo not shown) [I-461, 2-[4-(azetidin-1-yl)phenyl]-N-(1,1-dioxo-2,3-dihydro-1lambda6-thiophen-3-yl)-N-[(pyridin-4-yl)methyl]acetamide], under setting [1], the IC50 was more than 50 µM.

As to `CC(C)(O)c1cc(CN(C(=O)Cn2cc(-c3ccc(C(F)(F)F)cc3)cn2)C2C=CS(=O)(=O)C2)ccn1` (single isomer, unassigned) [I-638], the IC50 under setting [1] was less than 0.5 µM.

Consider `COc1cc(CN(C(=O)C(OC2CS(=O)(=O)C2)c2ccc(-c3ccc(F)c(F)c3)cc2F)[C@@H]2C=CS(=O)(=O)C2)ccn1` (single isomer, unassigned) [I-834, (2R*)-2-[(1,1-dioxo-1lambda6-thietan-3-yl)oxy]-N-[(3R)-1,1-dioxo-2,3-dihydro-1lambda6-thiophen-3-yl]-N-[(2-methoxypyridin-4-yl)methyl]-2-{3,3′,4′-trifluoro-[1,1′-biphenyl]-4-yl}acetamide], for which the IC50 under setting [1] is more than 50 µM.

Regarding `COc1cc(CN(C(=O)C(c2ccc(-c3ccc(F)c(F)c3)cc2F)n2cnnn2)[C@@H]2C=CS(=O)(=O)C2)ccn1` (stereo partly drawn) [I-734, N-[(3R)-1,1-dioxo-2,3-dihydro-1lambda6-thiophen-3-yl]-N-[(2-methoxypyridin-4-yl)methyl]-2-(1H-1,2,3,4-tetrazol-1-yl)-2-{3,3′,4′-trifluoro-[1,1′-biphenyl]-4-yl}acetamide], the IC50 under setting [1] was more than 50 µM.

With `O=C(Cc1ccc(-n2cccc2)cc1)N(Cc1ccc(F)cc1F)C1C=CS(=O)(=O)C1` (stereo not shown) [I-242, N-[(2,4-difluorophenyl)methyl]-N-(1,1-dioxo-2,3-dihydro-1lambda6-thiophen-3-yl)-2-[4-(1H-pyrrol-1-yl)phenyl]acetamide], the IC50 under setting [1] lay in the range of 5 to 10 µM.

As for `COc1cc(CN(C(=O)Cc2ncc(-c3ccc(F)c(F)c3)cc2F)C2C=CS(=O)(=O)C2)ccn1` (stereo not shown) [I-129, 2-[5-(3,4-difluorophenyl)-3-fluoropyridin-2-yl]-N-(1,1-dioxo-2,3-dihydro-1lambda6-thiophen-3-yl)-N-[(2-methoxypyridin-4-yl)methyl]acetamide], the IC50 under setting [1] was 0.5 to 5 µM.

With `CC(C)(O)c1cc(CN(C(=O)Cc2cc(-c3ccc(F)c(F)c3)n[nH]2)C2C=CS(=O)(=O)C2)ccn1` (single isomer, unassigned) [I-781], the IC50 under setting [1] was in the range of 10 to 50 µM.

As for `COc1cc(CN(C(=O)C(O/C=C/S(C)(=O)=O)c2ccc(-c3ccc(F)c(F)c3)cc2F)[C@@H]2C=CS(=O)(=O)C2)ccn1` (single isomer, unassigned) [I-803, (2R*)-N-[(3R)-1,1-dioxo-2,3-dihydro-1lambda6-thiophen-3-yl]-2-{[(1E)-2-methanesulfonylethenyl]oxy}-N-[(2-methoxypyridin-4-yl)methyl]-2-{3,3′,4′-trifluoro-[1,1′-biphenyl]-4-yl}acetamide], the IC50 under setting [1] is more than 50 µM.

On to `O=C(CN1CC=C(c2ccccc2)CC1)N(c1ccccc1)C1C=CS(=O)(=O)C1` (stereo not shown) [I-430, N-(1,1-dioxo-2,3-dihydro-1lambda6-thiophen-3-yl)-N-phenyl-2-(4-phenyl-1,2,3,6-tetrahydropyridin-1-yl)acetamide], for which the IC50 (ADP-Glo_hWRN_IC50, 0.15 nM WRN) is more than 50 µM.

Consider `O=C(/C=C/c1ccc(C(F)(F)F)cc1)N(Cc1ccncc1)C1C=CS(=O)(=O)C1` (stereo not shown) [I-529, (2E)-N-(1,1-dioxo-2,3-dihydro-1lambda6-thiophen-3-yl)-N-[(pyridin-4-yl)methyl]-3-[4-(trifluoromethyl)phenyl]prop-2-enamide], for which the IC50 under setting [1] was more than 50 µM.

As for `O=C(CCc1ccc(C(F)(F)F)cc1)N(Cc1ccncc1)C1C=CS(=O)(=O)C1` (stereo not shown) [I-507, N-(1,1-dioxo-2,3-dihydro-1lambda6-thiophen-3-yl)-N-[(pyridin-4-yl)methyl]-3-[4-(trifluoromethyl)phenyl]propanamide], the IC50 under setting [1] is more than 50 µM.

`COCC(C(=O)N(Cc1ccnc(C(C)(C)O)c1)[C@@H]1C=CS(=O)(=O)C1)c1ccc(S(F)(F)(F)(F)F)cc1` (single isomer, unassigned) [I-675]: the IC50 under setting [1] was 10 to 50 µM.

In the case of `O=C(Cn1cc(-c2ccc(F)c(F)c2)cn1)N(Cc1ccnc(N2CCNCC2)c1)C1C=CS(=O)(=O)C1` (stereo not shown) [I-787, 2-[4-(3,4-difluorophenyl)-1H-pyrazol-1-yl]-N-(1,1-dioxo-2,3-dihydro-1lambda6-thiophen-3-yl)-N-{[2-(piperazin-1-yl)pyridin-4-yl]methyl}acetamide], under setting [1], the IC50 is 0.5 to 5 µM.

For the compound `COc1ccc(COc2cc(CC(=O)N(Cc3ccnc(OC)c3)C3C=CS(=O)(=O)C3)ccc2-c2ccc(F)cn2)cc1` (stereo not shown) [I-451, N-(1,1-dioxo-2,3-dihydro-1lambda6-thiophen-3-yl)-2-[4-(5-fluoropyridin-2-yl)-3-[(4-methoxyphenyl)methoxy]phenyl]-N-[(2-methoxypyridin-4-yl)methyl]acetamide], the IC50 under setting [1] is more than 50 µM.

Consider `CS(=O)(=O)c1ccc(CC(=O)N(Cc2ccncc2)C2C=CS(=O)(=O)C2)cc1` (stereo not shown) [I-527, N-(1,1-dioxo-2,3-dihydro-1lambda6-thiophen-3-yl)-2-(4-methanesulfonylphenyl)-N-[(pyridin-4-yl)methyl]acetamide], for which, under setting [1], the IC50 was more than 50 µM.

For the compound `O=C(Cn1cc(-c2cc(F)c(F)c(F)c2)cn1)N(Cc1ccc(OCc2ccncc2)cc1)C1C=CS(=O)(=O)C1` (stereo not shown) [I-783, N-(1,1-dioxo-2,3-dihydro-1lambda6-thiophen-3-yl)-N-({4-[(pyridin-4-yl)methoxy]phenyl}methyl)-2-[4-(3,4,5-trifluorophenyl)-1H-pyrazol-1-yl]acetamide], under setting [1], the IC50 was less than 0.5 µM.
